Assay results as given in US20180303874A1, “Compositions and Methods for the Prevention of Microbial Infections” (LANKENAU INSTITUTE FOR MEDICAL RESEARCH, priority 2011, published 2018).

Legend:
HSV = details: co-incubated; cited from earlier work
claudin-2 = experiment: Western blot analysis of tight junctional protein claudin-2 in Caco-2 cells; assay type: cell-based, human; details: 50 or 100 μM zinc, one week, vs control
Experimental: (§1) Human gastrointestinal epithelial cells were allowed to grow to maximal density and re-fed with culture media at different zinc concentrations for pre-determined time points (0, 3, 6, 24 or 48 hours, or 7 days). Flasks were washed two times each with ice cold saline, then flash-frozen in an ethanol-dry ice bath, and stored at −80° C. until fractionation. At that time, flasks were quick-thawed and 2 ml of 4° C. Buffer A (20 mM Tris-HCl, pH 7.5, 0.25 M sucrose, 10 mM EGTA, 2 mM EDTA) with protease and phosphatase inhibitors (final concentrations: 0.8 μM aprotinin, 20 μM leupeptin, 50 μM bestatin, 1 mM AEBSF, 10 μM pepstatin) (Calbiochem) was added to each, cells were scraped into the buffer, the suspension mechanically disrupted and then sonicated for 60 seconds on ice and transferred to an ultracentrifuge tube. Tubes were centrifuged in a chilled Beckman 50TI rotor at 39,000 rpm for one hour at 4° C. […] The supernatant from this final spin was the “membrane fraction.” Total protein was measured using the BioRad DC™ Protein Assay Kit.
(§2) Samples of these fractions were analyzed by polyacrylamide gel electrophoresis using a Novex XCell SureLock™ Mini-Cell apparatus and a 4-20% gradient Novex Tris-Glycine, pre-cast, 10-well, 1.5 mm thick gel (Invitrogen). […]
(§3) Films were analyzed for protein expression level by measuring optical density units with a Personal Densitometer™ SI (Molecular Dynamics).

claudin-7 = experiment: Western blot analysis of tight junctional protein claudin-7 in Caco-2 cells; assay type: cell-based, human; details: 50 or 100 μM zinc, one week, vs control
Experimental: as §1, §2, §3

Caco-2 cell sheets = experiment: Transepithelial electrophysiology of Caco-2 cell sheets; assay type: cell-based, human; details: vs control
Experimental: Cells were seeded at the density of 5×10^5 onto sterile Millipore Millicell polycarbonate (PCF) permeable supports (pore size 0.4 μm with a diameter of 30 mm) on Day 0. Cells were allowed to grow for 21-24 days prior to experiments (Hubatsch et al. (2007) Nat. Protoc., 2:2111-9). Three or four Millicell PCF units (2 ml/unit) were placed in a 100 mm sterile petri dish (15 ml/dish). Cells were fed bilaterally 3 times per week with control medium until at least Day 14 and switched to different zinc-supplemented media (Ctrl, 50 or 100 μM elemental zinc) for another week. […]
On the day of experiment, cells were re-fed in fresh culture medium and allowed to incubate at 37° C. for 2 hr prior to the actual experiment. Transepithelial voltage and transepithelial electrical resistance were measured as previously described (Skrovanek et al. (2007) Am. J. Physiol. Regul. Integr. Comp. Physiol., 293:R1046-55). In brief, using silver/silver chloride electrodes in series with 1M NaCl agar bridges, a 40 microamp externally applied current pulse was delivered across the cell layer and the resultant change in the voltage across the cell layer was measured using calomel electrodes in series with 1M NaCl/agar bridges and a Keithley® 197A auto-ranging digital multimeter. […]

CC(=O)[O-].CC(=O)[O-].[Zn+2] [zinc acetate]
inactivation of HSV (HSV): directly inactivate

CC(O)C(=O)[O-].CC(O)C(=O)[O-].[Zn+2] (centres unmarked) [zinc lactate]
inactivation of HSV (HSV): directly inactivate

O=S(=O)([O-])[O-].[Zn+2] [zinc sulfate]
inactivation of HSV (HSV): directly inactivate

[Zn] [zinc]
expression of claudin-2 (claudin-2): significantly reduced | expression of claudin-7 (claudin-7): reduction, albeit to a lesser extent than claudin-2 | short circuit current (Caco-2 cell sheets; 50 or 100 μM zinc, one week): comparable short circuit currents | transepithelial electrical resistance (Caco-2 cell sheets; one-week zinc supplementation (50 or 100 μM)): significant increase

zinc gluconate
inactivation of HSV (HSV): directly inactivate
